{
  "source": "patent US20080233216A1",
  "about": "“Composition Comprising the Extract of Siegesbeckiae Herba For Preventing and Treating Arthritis and the Use Thereof” (Industry Academic Cooperation Foundation Of Kyunghee …, priority 2006, published 2008)",
  "type_in_all_cases": "in vivo",
  "key": {"Male ICR mouse [1]": {"tested_on": "Male ICR mouse", "assay": "Acetic acid induced writhing analgesia test", "conditions": "100 mg/kg oral, 1 h before 0.7% acetic acid; writhing counted 10 min", "description": "In order to determine the analgesic activity of the inventive extract of the present invention, acetic acid-induced writhing test was performed according to the method disclosed in the literature as follows (Whittle B A, Brit. J. Pharmacol. Chemother., 22, pp 246-253, 1964).\nMale ICR mouse (Jung Ang laboratory animal, Japan) weighing from 20 to 25 g was acclimated for several days and each group consists of 10 mice."}, "Male ICR mouse [2]": {"tested_on": "Male ICR mouse", "assay": "Croton oil induced ear oedema", "conditions": "100 mg/kg oral; ear thickness 4 hours after 2.5% croton oil", "description": "In order to determine the anti-inflammatory activity of inventive extract, following test using croton oil-induced ear edema was performed according to method disclosed in the literature (Zhang B et al., Eur. J. Pharmacol., 530(1-2), pp 166-171, 2006).\nMale ICR mouse (Jung Ang laboratory animal, Japan) weighing from 20 to 30 g was used as an experimental animal and each group consists of 6 mice. […] After 4 hours, the increased rate of ear thickness was calculated by comparing with that of left ear and the result was shown in Table 4."}, "Male ICR mouse [3]": {"tested_on": "Male ICR mouse", "assay": "Arachidonic acid induced ear edema", "conditions": "100 mg/kg oral; ear thickness 1 hour after arachidonic acid", "description": "In order to determine the anti-inflammatory activity of inventive extract, following test using arachidonic acid-induced ear edema was performed according to method disclosed in the literature (Zhou H et al., Biol. Pharm. Bull., 29(2) pp 253-260, 2006).\nMale ICR mouse (Jung Ang laboratory animal, Japan) weighing from 20 to 30 g was used as an experimental animal and each group consists of 10 mice. […] After 1 hour, the increased rate of ear thickness was calculated by comparing with that of left ear and the result was shown in Table 3."}},
  "data": [
    {"smiles": "Cc1ccc(-c2cc(C(F)(F)F)nn2-c2ccc(S(N)(=O)=O)cc2)cc1", "note": "[Celecoxib]", "values": [
      {"measurement": "Inhibition of writhing (%)", "setting": "Male ICR mouse [1]", "result": 61.9, "unit": "%"},
      {"measurement": "Inhibition rate of edema (%)", "setting": "Male ICR mouse [2]", "result": 33.12, "unit": "%"},
      {"measurement": "Inhibition rate of edema (%)", "setting": "Male ICR mouse [3]", "result": 25.29, "unit": "%"}
    ]}
  ]
}
